Laboratory results: patent publication US20230023092A1, “TREATMENT OF DEPRESSION AND OTHER VARIOUS DISORDERS WITH PSILOCYBIN” (COMPASS […], priority 2019, published 2023)

Experiments:
[1] = system: healthy subjects; experiment: Scale of Social Responsibility (SSR); assay type: in vivo, human
Protocol: In some embodiments, the Scale of Social Responsibility (SSR) is utilized to evaluate the safety and/or efficacy of psilocybin. The SSR measures perceptions regarding the importance of ethics and social responsibility.
(§1) The Pictorial Empathy Test (PET), Reading the Mind in the Eyes Test (RMET), Scale of Social Responsibility (SSR), Social Value Orientation (SVO), and Toronto Empathy Questionnaire (TEQ) were performed. Table 20 summarizes the results of the mixed model for repeated measures (MMRM) analysis for each of the aforementioned social cognition panel scales measured on Day 7 and Day 84 after study drug administration.

[2] = system: healthy subjects; experiment: Social Value Orientation (SVO); assay type: in vivo, human
From the text: In some embodiments, the Social Value Orientation (SVO) test is utilized to evaluate the safety and/or efficacy of psilocybin. The SVO Slider Measure has 6 primary items with 9 secondary (and optional) items. All of the items have the same general form. Each item is a resource allocation choice over a well-defined continuum of joint payoffs.
as §1

[3] = Day 7, psilocybin 10 mg - placebo
[4] = Day 7, psilocybin 25 mg - 10 mg
[5] = Day 7, psilocybin 25 mg - placebo
[6] = Day 84, psilocybin 10 mg - placebo
[7] = Day 84, psilocybin 25 mg - 10 mg
[8] = Day 84, psilocybin 25 mg - placebo

## CN(C)CCc1c[nH]c2cccc(OP(=O)(O)O)c12 [Psilocybin, psilocybin]
[1]; Day 7, psilocybin 10 mg
  SSR compliance social rules change from baseline (LS mean): −0.1
  SSR fullfilling expectations change from baseline (LS mean): −0.1
  SSR global change from baseline (LS mean): −2.0
[1]; [3]
  SSR compliance social rules change from baseline, LS mean difference: 0.0
  SSR fullfilling expectations change from baseline, LS mean difference: 0.1
  SSR global change from baseline, LS mean difference: 1.2
[1]; Day 7, psilocybin 25 mg
  SSR compliance social rules change from baseline (LS mean): 0.0
  SSR fullfilling expectations change from baseline (LS mean): −0.0
  SSR global change from baseline (LS mean): −0.3
[1]; [4]
  SSR compliance social rules change from baseline, LS mean difference: 0.1
  SSR fullfilling expectations change from baseline, LS mean difference: 0.1
  SSR global change from baseline, LS mean difference: 1.6
[1]; [5]
  SSR compliance social rules change from baseline, LS mean difference: 0.1
  SSR fullfilling expectations change from baseline, LS mean difference: 0.2
  SSR global change from baseline, LS mean difference: 2.8
[1]; Day 84, psilocybin 10 mg
  SSR compliance social rules change from baseline (LS mean): −0.1
  SSR fullfilling expectations change from baseline (LS mean): −0.2
  SSR global change from baseline (LS mean): −1.8
[1]; [6]
  SSR compliance social rules change from baseline, LS mean difference: −0.0
  SSR fullfilling expectations change from baseline, LS mean difference: −0.1
  SSR global change from baseline, LS mean difference: 0.3
[1]; Day 84, psilocybin 25 mg
  SSR compliance social rules change from baseline (LS mean): 0.0
  SSR fullfilling expectations change from baseline (LS mean): −0.0
  SSR global change from baseline (LS mean): 0.1
[1]; [7]
  SSR compliance social rules change from baseline, LS mean difference: 0.1
  SSR fullfilling expectations change from baseline, LS mean difference: 0.2
  SSR global change from baseline, LS mean difference: 1.8
[1]; [8]
  SSR compliance social rules change from baseline, LS mean difference: 0.1
  SSR fullfilling expectations change from baseline, LS mean difference: 0.0
  SSR global change from baseline, LS mean difference: 2.2
[2]; Day 7, psilocybin 10 mg
  SVO angle change from baseline (LS mean): 1.8
  SVO type change from baseline (LS mean): 0.1
[2]; [3]
  SVO angle change from baseline, LS mean difference: 3.4
  SVO type change from baseline, LS mean difference: 0.1
[2]; Day 7, psilocybin 25 mg
  SVO angle change from baseline (LS mean): 0.5
  SVO type change from baseline (LS mean): 0.1
[2]; [4]
  SVO angle change from baseline, LS mean difference: −1.3
  SVO type change from baseline, LS mean difference: −0.0
[2]; [5]
  SVO angle change from baseline, LS mean difference: 2.1
  SVO type change from baseline, LS mean difference: 0.1
[2]; Day 84, psilocybin 10 mg
  SVO angle change from baseline (LS mean): 0.1
  SVO type change from baseline (LS mean): 0.1
[2]; [6]
  SVO angle change from baseline, LS mean difference: 3.4
  SVO type change from baseline, LS mean difference: 0.1
[2]; Day 84, psilocybin 25 mg
  SVO angle change from baseline (LS mean): −0.9
  SVO type change from baseline (LS mean): 0.0
[2]; [7]
  SVO angle change from baseline, LS mean difference: −1.0
  SVO type change from baseline, LS mean difference: −0.0
[2]; [8]
  SVO angle change from baseline, LS mean difference: 2.4
  SVO type change from baseline, LS mean difference: 0.1
